Experimental data from patent publication US11746098B2, “Proteasome activity enhancing compounds” (Proteostasis Therapeutics, Inc., priority 2018, dated 2023).

Biological target: USP14 (Homo sapiens, UniProt P54578)
Assay: USP14 Inhibition Assay
Format: biochemical
Conditions: average value from a minimum of two experimental determinations, read-out: IC50 Category
Source text: The activity of the compound described herein to inhibit USP14 can be measured using previously described methodology [B. H. Lee et al. Nature 2010, 467 (9), 179, the contents of which are expressly incorporated by reference herein].
Example 6: USP14 Inhibition Assay

IC50 | SMILES
0.5 to 5 µM | Cc1cc(C(=O)CN2CCCCC2)c(C)n1-c1ccc(OC(F)(F)F)cc1 [Compound 58, 1-(2,5-Dimethyl-1-(4-(trifluoromethoxy)phenyl)-1H-pyrrol-3-yl)-2-(piperidin-1-yl)ethanone]
> 5 µM | Cc1cc(Cl)cc(C)c1-n1ccc(C(=O)CN2CCC(O)CC2)c1 [Compound 24, 1-(1-(4-Chloro-2,6-dimethylphenyl)-1H-pyrrol-3-yl)-2-(4-hydroxypiperidin-1-yl)ethanone]
0.5 to 5 µM | CC#Cc1ccc(-n2c(C)cc(C(=O)CN3CCC(O)CC3)c2C)cc1 [Compound 140, 1-(2,5-Dimethyl-1-(4-(prop-1-yn-1-yl)phenyl)-1H-pyrrol-3-yl)-2-(4-hydroxypiperidin-1-yl)ethanone]
0.5 to 5 µM | Cc1cc(C(=O)CN2CCC(C(F)(F)F)CC2)c(C)n1-c1ccc(Cl)cc1 [Compound 53, 1-(1-(4-Chlorophenyl)-2,5-dimethyl-1H-pyrrol-3-yl)-2-(4-(trifluoromethyl)piperidin-1-yl)ethanone]
> 5 µM | Cc1cc(Cl)cc(C)c1-n1cccc1C(=O)CN1CCCC1 [Compound 28, 1-(1-(4-Chloro-2,6-dimethylphenyl)-1H-pyrrol-2-yl)-2-(pyrrolidin-1-yl)ethanone]
< 0.5 µM | Cc1cc(C(=O)CN2CCCCC2)c(C)n1C1CCC(Cl)(Cl)CC1 [Compound 97, 1-(1-(4,4-Dichlorocyclohexyl)-2,5-dimethyl-1H-pyrrol-3-yl)-2-(piperidin-1-yl)ethanone]
> 5 µM | Cc1cc(C=O)c(C)n1-c1ccc(Cl)cc1 [Compound 100, 1-(4-Chlorophenyl)-2,5-dimethyl-1H-pyrrole-3-carbaldehyde]
< 0.5 µM | Cc1cc(C(=O)CN2CCC(OCC(=O)N3CCCCC3)CC2)c(C)n1-c1ccc(Cl)cc1 [Compound 80, 1-(1-(4-Chlorophenyl)-2,5-dimethyl-1H-pyrrol-3-yl)-2-(4-(2-oxo-2-(piperidin-1-yl)ethoxy)piperidin-1-yl)ethanone]
> 5 µM | Cc1cc(C(=O)CN2CCC(C(=O)OCc3ccccc3)CC2)c(C)n1C1CCC1 [Compound 37, Benzyl 1-(2-(1-cyclobutyl-2,5-dimethyl-1H-pyrrol-3-yl)-2-oxoethyl)piperidine-4-carboxylate]
0.5 to 5 µM | Cc1cc(C(=O)CN2CCC(S(C)(=O)=O)C2)c(C)n1-c1ccc(Cl)cc1 (centres unmarked) [Compound 51, 1-(1-(4-Chlorophenyl)-2,5-dimethyl-1H-pyrrol-3-yl)-2-(3-(methylsulfonyl)pyrrolidin-1-yl)ethanone]
> 5 µM | Cc1cc(C(=O)CN2CCCC2)c(C)n1-c1cc(F)cc(F)c1 [Compound 22, 1-(1-(3,5-Difluorophenyl)-2,5-dimethyl-1H-pyrrol-3-yl)-2-(pyrrolidin-1-yl)ethanone]
> 5 µM | Cc1cc(C(=O)CN(CCOCc2ccccc2)CC(=O)c2cc(C)n(-c3ccc(C#N)cc3)c2C)c(C)n1-c1ccc(C#N)cc1 [Compound 43, 4,4′-(3,3′-(2,2′-((2-(Benzyloxy)ethyl)azanediyl)bis(acetyl))bis(2,5-dimethyl-1H-pyrrole-3,1-diyl))dibenzonitrile]
0.5 to 5 µM | Cc1cc(C(=O)CN2CCC(F)CC2)c(C)n1-c1ccc(F)cc1 [Compound 74, 1-(1-(4-Fluorophenyl)-2,5-dimethyl-1H-pyrrol-3-yl)-2-(4-fluoropiperidin-1-yl)ethanone]
> 5 µM | Cc1cc(C(=O)CN2CCCCC2)c(C)n1C1CCC1 [Compound 35, 1-(1-Cyclobutyl-2,5-dimethyl-1H-pyrrol-3-yl)-2-(piperidin-1-yl)ethanone]
0.5 to 5 µM | Cc1cc(C(=O)CN2CCCC2)c(C)n1-c1ccc(Br)c(Cl)c1 [Compound 56, 1-(1-(4-Bromo-3-chlorophenyl)-2,5-dimethyl-1H-pyrrol-3-yl)-2-(pyrrolidin-1-yl)ethanone]
> 5 µM | Cc1cc(C(=O)CN[C@H](C)C2CCCCC2)c(C)n1-c1ccc(Cl)cc1 [Compound 11, (R)-1-(1-(4-Chlorophenyl)-2,5-dimethyl-1H-pyrrol-3-yl)-2-((1-cyclohexylethyl)amino)ethan-one]
> 5 µM | Cc1cc(C(=O)CN2CCCCC2)c(C)n1CC(F)(F)F [Compound 107, 1-(2,5-Dimethyl-1-(2,2,2-trifluoroethyl)-1H-pyrrol-3-yl)-2-(piperidin-1-yl)ethanone]
> 5 µM | Cc1cc(C(=O)CN2CCCCC2)c(C)n1-c1ccc(C(=O)O)cc1 [Compound 114, 4-(2,5-Dimethyl-3-(2-(piperidin-1-yl)acetyl)-1H-pyrrol-1-yl)benzoic acid]
0.5 to 5 µM | COc1ccc(-n2c(C)cc(C(=O)CN3CCCCC3)c2C)cc1F [Compound 63, 1-(1-(3-Fluoro-4-methoxyphenyl)-2,5-dimethyl-1H-pyrrol-3-yl)-2-(piperidin-1-yl)ethanone]
> 5 µM | Cc1cc(C(=O)CN2CCC(O)CC2)c(C)n1-c1cc(F)cc(F)c1 [Compound 15, 1-(1-(3,5-Difluorophenyl)-2,5-dimethyl-1H-pyrrol-3-yl)-2-(4-hydroxypiperidin-1-yl)ethanone]
> 5 µM | Cc1cc(C(=O)CN2CCCCC2)c(C)n1[C@H]1CC[C@@H](C(N)=O)CC1 [Compound 103, cis-4-(2,5-Dimethyl-3-(2-(piperidin-1-yl)acetyl)-1H-pyrrol-1-yl)cyclohexanecarboxamide]
> 5 µM | Cc1cc(C(=O)CN2CCCCC2)c(C)n1-c1cccc2ccccc12 [Compound 5, 1-(2,5-Dimethyl-1-(naphthalen-1-yl)-1H-pyrrol-3-yl)-2-(piperidin-1-yl)ethanone]
> 5 µM | Cc1cc(C(=O)CN2CCC(O)CC2)c(C)n1-c1cc(Cl)cc(Cl)c1 [Compound 18, 1-(1-(3,5-Dichlorophenyl)-2,5-dimethyl-1H-pyrrol-3-yl)-2-(4-hydroxypiperidin-1-yl)ethanone]
0.5 to 5 µM | Cc1c(C(=O)CN2CCC(O)CC2)c(C)n(-c2ccc(Cl)cc2)c1C [Compound 139, 1-(1-(4-Chlorophenyl)-2,4,5-trimethyl-1H-pyrrol-3-yl)-2-(4-hydroxypiperidin-1-yl)ethanone]
> 5 µM | Cc1cc(C(=O)CN2CCC(O)CC2)c(C)n1-c1ccc(C(F)(F)F)cc1 [Compound 21, 1-(2,5-Dimethyl-1-(4-(trifluoromethyl)phenyl)-1H-pyrrol-3-yl)-2-(4-hydroxypiperidin-1-yl)ethanone]
0.5 to 5 µM | Cc1cc(C(=O)CN2CCC(O)CC2)c(C)n1-c1ccc(F)c(F)c1 [Compound 70, 1-(1-(3,4-Difluorophenyl)-2,5-dimethyl-1H-pyrrol-3-yl)-2-(4-hydroxypiperidin-1-yl)ethanone]
0.5 to 5 µM | Cc1cc(C(=O)CN2CCC(O)(CN(C)C)C2)c(C)n1-c1ccc(Cl)cc1 (centres unmarked) [Compound 60, 1-(1-(4-Chlorophenyl)-2,5-dimethyl-1H-pyrrol-3-yl)-2-(3-((dimethylamino)methyl)-3-hydroxypyrrolidin-1-yl)ethanone]
< 0.5 µM | Cc1c(C(=O)CN2CCCCC2)cn(C)c1-c1ccc(Cl)cc1 [Compound 93, 1-(5-(4-Chlorophenyl)-1,4-dimethyl-1H-pyrrol-3-yl)-2-(piperidin-1-yl)ethanone]
< 0.5 µM | Cc1cc(C(=O)CN2CCC(O)CC2)n(C)c1-c1ccc(Cl)cc1 [Compound 95, 1-(5-(4-Chlorophenyl)-1,4-dimethyl-1H-pyrrol-2-yl)-2-(4-hydroxypiperidin-1-yl)ethanone]
